Laboratory results from article PMC6273209, “Evaluation of the Enantiomer Specific Biokinetics and Radiation Doses of [^18F]Fluspidine—A New Tracer in Clinical Translation for Imaging of σ1 Receptors” (Molecules, 2016).
Like-named read-outs stand apart in the source and are kept apart here.

Assays:
[1] = cited from earlier work
[2] = cited from earlier work; remark: listed apart in the source
[3] = molecular target: σ1 receptors; design: method as in PMID 24130175; conditions: read-out: Ki (affinity towards σ1 receptors); cited from earlier work
[4] = design: method as in PMID 12573321, PMID 12589478; conditions: cited from earlier work
[5] = imaging, cited from earlier work
[6] = Acute toxicity study, single intravenous injection; assay type: in vivo; conditions: Wistar rats
Text: Supplementary Materials: Evaluation of the Enantiomer Specific Biokinetics and Radiation Doses of [18F]Fluspidine—A New Tracer in Clinical
Translation for Imaging of σ1 Receptors […]
Supplemental Methods and Results
Animal Toxicity Study of (S)-(−)-Fluspidine
The purpose of this study was to assess the acute toxicity of (S)-(−)-fluspidine when administered by a single intravenous injection to rats followed by an observation period of 2 or 15 day (in accordance with EU cGLP). Briefly, the study was performed with 4 test groups, including 1 control (saline and dimethylsulfoxide) and 3 dose groups (6.2, 62 and 620 µg/kg, (S)- (−)ﬂuspidine), with Wistar rats (60 m, 60 f, 12 weeks) divided into two experiments: day 2 (40 males and 40 females) and day 15 (20 males and 20 females). The animals were weighted and allocated to the test groups based on their actual body weights. The animals were sacrificed at two time periods (day 2 and day 15 after test item administration) and then examined macroscopically and histopathologically. In addition the following parameters were evaluated: mortality, clinical observation (spasms, tremor and hyperactivity), body weights, food consumption, haematology (white blood cells, red blood cells, hemoglobin, hematocrit, mean corpuscular volume, mean corpuscular hemoglobin, platelets, lympohcytes, neutrophils, eosinophils, basophils, monocytes), clinical chemistry (alkaline phosphatase, aspartate aminotransferase, alanine aminotransferase, glucose, cholesterol, triacylglycerols, creatinine, urea, bilirubin, albumin, calcium, phosphorus, sodium, potassium chloride), pathology and histopathology. […]
in either gender were detected. The food consumption corresponded with body weight development. All haematology parameter´s values on day 2 and day 15 were within physiological range for this species. Individual divergences of some values of the haematology parameters were slight and not connected with treatment.
There were no findings in clinical chemistry parameters which could be definitively considered as adverse. The average values of all test groups were within the historical control ranges. Occasional changes had no dose relationship, they were considered to be a result of intraindividual and interindividual variability for this species. […]
histopathological parameters on day 2 and day 15. The no observed effect level (NOEL) of (S)- (−)-fluspidine after single intravenous administration in this study for both day 2 and day 15 was determined to be 620 µg/kg.

Q: Which results are given for `COc1ccc(OCC[18F])c(CN(C(C)=O)c2cc(F)ccc2Oc2ccccc2)c1` [[^18F]FEDAA1106]?
A: ED Clinical [1]: 36 μSv/MBq; ED Preclinical ([2]; female mouse): 26.0 μSv/MBq; ED Preclinical ([2]; male mouse): 21.0 μSv/MBq

Q: Which Ki [3] does the source give for `FCC[C@H]1OC2(CCN(Cc3ccccc3)CC2)c2ccccc21` [(R)-(+)-[^18F]fluspidine] here?
A: Its Ki is 0.57 nM.

Q: For `N[C@@H](Cc1ccc(OCC[18F])cc1)C(=O)O` [[^18F]FET], which “ED Preclinical” value [4] is on record?
A: The value was 9.0 μSv/MBq.

Q: And the “ED Clinical” value [1]?
A: Its value is 16.5 μSv/MBq.

Q: For `[18F]c1ccc(C2CC3CCCC2N3)cn1` (single isomer, unassigned; (+)) [(+)-[^18F]flubatine], which “ED Preclinical” value ([5]; piglets) is on record?
A: The value was 14.3 μSv/MBq.

Q: What about the “ED Clinical” value [1] of the same molecule?
A: The value was 23.0 μSv/MBq.

Q: What about the “ED Preclinical” value ([2]; mouse, imaging) of the same molecule?
A: The value was 12.1 μSv/MBq.

Q: What does the source list for `[18F]c1ccc([C@@H]2C[C@H]3CCC[C@@H]2N3)cn1` [(−)-[^18F]flubatine]?
A: ED Preclinical ([5]; piglet): 14.7 μSv/MBq; ED Clinical [1]: 23.4 μSv/MBq; ED Preclinical ([2]; mouse): 12.5 μSv/MBq

Q: With `FCC[C@@H]1OC2(CCN(Cc3ccccc3)CC2)c2ccccc21` [(S)-(−)-fluspidine] as the molecule, how does the “body weights, control vs treated groups” value ([6]; single i.v. 6.2, 62 and 620 µg/kg, either gender) read?
A: The value was “No statistically significant differences in body weights”.

Q: And the “adverse findings in clinical chemistry parameters” value ([6]; single i.v.)?
A: The value was “no findings”.

Q: And the “effect on haematology parameters” value ([6]; single i.v., day 2 and day 15)?
A: Its value is “No test item effect”.

Q: What about the “toxicological changes in pathological and histopathological parameters” value ([6]; single intravenous administration, day 2 and day 15) of the same molecule?
A: Its value is “did not cause toxicological changes”.

Q: What about the “no observed effect level (NOEL)” value ([6]; single intravenous administration, day 2 and day 15, highest tested dose) of the same molecule?
A: The value was 0.62 mg/kg.

Q: For `OC[C@H]1OC(O)[C@H]([18F])[C@@H](O)[C@@H]1O` (stereo partly shown) [[^18F]FDG], which “ED Clinical” value [1] is on record?
A: Its value is 19.0 μSv/MBq.

Q: For `[18F]c1ncccc1OC[C@@H]1CCN1` [2-[^18F]F-A85380], which “ED Clinical” value [1] is on record?
A: The value was 19.4 μSv/MBq.
